Source: ChEMBL document CHEMBL5465560, “Selectivity Literature for EUbOPEN Chemogenomic Library” (2024)
One block for each compound: values may come before it.

Tests used:
[1] = target: Ribosomal protein S6 kinase beta-1 (Homo sapiens, UniProt P23443); test: Selectivity interaction (Enyzmatic assay) EUB0000601a RPS6KB1
[2] = target: Calcium/calmodulin-dependent protein kinase type II subunit beta (Homo sapiens) (UniProt Q13554); test: Selectivity interaction (Ambit KINOMEscan and KiNATiv profiling in Jurkat cells) EUB0000090b CAMK2B; format: cell-based; conditions: at 1 µM
Calcium/calmodulin-dependent protein kinase type II subunit beta (Homo sapiens), sequence (Q13554 whole entry): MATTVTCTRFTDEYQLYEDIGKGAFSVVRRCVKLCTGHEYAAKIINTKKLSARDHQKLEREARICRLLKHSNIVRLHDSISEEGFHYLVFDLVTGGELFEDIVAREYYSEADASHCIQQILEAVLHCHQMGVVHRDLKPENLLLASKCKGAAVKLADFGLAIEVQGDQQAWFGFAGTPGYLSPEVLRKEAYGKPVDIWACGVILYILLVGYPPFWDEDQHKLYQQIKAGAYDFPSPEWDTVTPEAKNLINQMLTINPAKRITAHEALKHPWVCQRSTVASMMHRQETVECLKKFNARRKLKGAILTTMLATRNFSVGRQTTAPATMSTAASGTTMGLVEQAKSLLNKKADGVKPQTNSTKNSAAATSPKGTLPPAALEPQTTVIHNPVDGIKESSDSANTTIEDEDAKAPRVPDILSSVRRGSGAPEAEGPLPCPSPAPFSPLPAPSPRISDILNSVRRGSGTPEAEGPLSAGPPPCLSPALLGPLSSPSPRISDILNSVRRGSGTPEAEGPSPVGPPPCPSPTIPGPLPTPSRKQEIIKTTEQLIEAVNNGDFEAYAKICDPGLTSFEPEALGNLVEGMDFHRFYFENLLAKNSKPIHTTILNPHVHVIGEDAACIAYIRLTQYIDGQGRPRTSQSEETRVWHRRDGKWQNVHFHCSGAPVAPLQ

[3] = target: T1, Phosphatidylinositol 5-phosphate 4-kinase type-2 gamma (Homo sapiens) (UniProt Q8TBX8); test: Selectivity interaction (ActivX KiNativ screen (kinase selectivity in THP-1 cell lysates)) EUB0000639a PIP4K2C; format: subcellular; conditions: lysate, at 5 µM
T1 sequence (whole entry): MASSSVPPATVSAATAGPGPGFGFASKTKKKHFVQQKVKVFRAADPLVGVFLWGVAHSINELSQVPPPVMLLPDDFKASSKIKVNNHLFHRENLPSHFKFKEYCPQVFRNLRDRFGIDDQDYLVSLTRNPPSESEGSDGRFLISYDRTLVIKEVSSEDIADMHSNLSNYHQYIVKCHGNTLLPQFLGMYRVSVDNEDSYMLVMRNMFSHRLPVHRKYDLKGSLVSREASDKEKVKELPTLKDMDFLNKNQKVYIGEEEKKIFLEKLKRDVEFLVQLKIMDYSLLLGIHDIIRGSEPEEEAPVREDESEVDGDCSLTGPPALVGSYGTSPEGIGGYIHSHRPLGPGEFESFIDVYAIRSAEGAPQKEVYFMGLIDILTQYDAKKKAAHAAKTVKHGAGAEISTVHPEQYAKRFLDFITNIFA

[4] = target: Serine/threonine-protein kinase N2 (Homo sapiens, UniProt Q16513); test: Selectivity interaction (Kinase panel (literature)) EUB0001199aCl PKN2; conditions: at 1 µM
Serine/threonine-protein kinase N2, sequence (Q16513 whole entry, looked up): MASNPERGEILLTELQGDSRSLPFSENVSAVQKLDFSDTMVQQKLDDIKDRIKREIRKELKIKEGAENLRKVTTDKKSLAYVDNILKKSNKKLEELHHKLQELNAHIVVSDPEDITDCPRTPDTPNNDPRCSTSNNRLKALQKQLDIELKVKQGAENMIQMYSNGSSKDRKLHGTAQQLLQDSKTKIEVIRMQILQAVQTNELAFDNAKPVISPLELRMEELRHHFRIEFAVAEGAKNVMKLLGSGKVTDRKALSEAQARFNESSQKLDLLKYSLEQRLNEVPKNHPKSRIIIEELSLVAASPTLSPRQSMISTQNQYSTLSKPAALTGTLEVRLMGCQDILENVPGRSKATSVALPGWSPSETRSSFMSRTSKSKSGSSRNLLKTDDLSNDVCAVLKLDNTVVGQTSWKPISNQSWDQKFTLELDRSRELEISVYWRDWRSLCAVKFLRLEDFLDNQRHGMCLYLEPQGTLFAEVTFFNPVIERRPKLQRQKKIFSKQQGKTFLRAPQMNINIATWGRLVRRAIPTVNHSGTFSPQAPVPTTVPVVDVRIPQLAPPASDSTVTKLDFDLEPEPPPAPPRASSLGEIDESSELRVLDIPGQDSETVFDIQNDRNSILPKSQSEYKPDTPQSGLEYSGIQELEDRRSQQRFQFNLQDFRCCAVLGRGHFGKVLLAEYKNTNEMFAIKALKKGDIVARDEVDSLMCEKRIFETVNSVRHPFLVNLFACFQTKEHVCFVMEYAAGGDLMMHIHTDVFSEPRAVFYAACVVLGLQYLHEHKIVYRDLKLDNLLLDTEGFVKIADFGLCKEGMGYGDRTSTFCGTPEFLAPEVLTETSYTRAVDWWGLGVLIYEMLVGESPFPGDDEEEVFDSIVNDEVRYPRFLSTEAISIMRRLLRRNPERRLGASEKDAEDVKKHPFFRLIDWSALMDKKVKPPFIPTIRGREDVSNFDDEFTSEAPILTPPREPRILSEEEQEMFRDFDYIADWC

[5] = target: T2, Tyrosine-protein kinase Mer (Homo sapiens) (UniProt Q12866); test: Selectivity interaction (KinomeScan (DiscoverX)) EUB0000695a MERTK; conditions: at 100 nM
T2 sequence (whole entry): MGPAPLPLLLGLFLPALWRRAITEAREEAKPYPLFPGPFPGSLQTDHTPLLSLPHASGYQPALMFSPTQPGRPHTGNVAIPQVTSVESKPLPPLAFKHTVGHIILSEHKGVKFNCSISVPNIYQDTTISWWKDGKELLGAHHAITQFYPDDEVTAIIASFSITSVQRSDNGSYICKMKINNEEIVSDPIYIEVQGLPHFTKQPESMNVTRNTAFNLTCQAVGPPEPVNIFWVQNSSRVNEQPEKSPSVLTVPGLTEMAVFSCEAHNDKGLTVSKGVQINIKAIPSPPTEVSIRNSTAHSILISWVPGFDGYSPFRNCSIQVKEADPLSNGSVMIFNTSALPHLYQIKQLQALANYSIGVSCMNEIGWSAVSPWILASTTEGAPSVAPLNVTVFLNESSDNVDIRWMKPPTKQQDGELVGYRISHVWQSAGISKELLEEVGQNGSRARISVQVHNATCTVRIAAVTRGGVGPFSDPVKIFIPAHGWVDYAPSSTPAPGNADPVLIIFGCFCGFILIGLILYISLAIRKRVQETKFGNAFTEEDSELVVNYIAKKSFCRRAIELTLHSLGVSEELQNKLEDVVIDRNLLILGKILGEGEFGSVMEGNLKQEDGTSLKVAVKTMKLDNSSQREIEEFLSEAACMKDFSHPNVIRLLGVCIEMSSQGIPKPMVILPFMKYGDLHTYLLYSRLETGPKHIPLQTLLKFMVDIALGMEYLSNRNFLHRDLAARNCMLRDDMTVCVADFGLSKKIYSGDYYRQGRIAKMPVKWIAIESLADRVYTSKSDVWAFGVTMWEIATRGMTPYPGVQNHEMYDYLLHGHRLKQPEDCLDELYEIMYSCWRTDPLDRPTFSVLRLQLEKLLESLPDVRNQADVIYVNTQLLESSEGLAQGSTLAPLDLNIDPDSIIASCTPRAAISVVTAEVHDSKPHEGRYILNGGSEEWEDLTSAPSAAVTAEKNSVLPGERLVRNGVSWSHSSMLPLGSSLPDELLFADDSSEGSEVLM

[6] = target: Mitogen-activated protein kinase kinase kinase kinase 4 (Homo sapiens, UniProt O95819); test: Selectivity interaction (KinomeScan (DiscoverX)) EUB0000092b MAP4K4; conditions: at 10 µM
Mitogen-activated protein kinase kinase kinase kinase 4, sequence (O95819 2-1239 limits assumed): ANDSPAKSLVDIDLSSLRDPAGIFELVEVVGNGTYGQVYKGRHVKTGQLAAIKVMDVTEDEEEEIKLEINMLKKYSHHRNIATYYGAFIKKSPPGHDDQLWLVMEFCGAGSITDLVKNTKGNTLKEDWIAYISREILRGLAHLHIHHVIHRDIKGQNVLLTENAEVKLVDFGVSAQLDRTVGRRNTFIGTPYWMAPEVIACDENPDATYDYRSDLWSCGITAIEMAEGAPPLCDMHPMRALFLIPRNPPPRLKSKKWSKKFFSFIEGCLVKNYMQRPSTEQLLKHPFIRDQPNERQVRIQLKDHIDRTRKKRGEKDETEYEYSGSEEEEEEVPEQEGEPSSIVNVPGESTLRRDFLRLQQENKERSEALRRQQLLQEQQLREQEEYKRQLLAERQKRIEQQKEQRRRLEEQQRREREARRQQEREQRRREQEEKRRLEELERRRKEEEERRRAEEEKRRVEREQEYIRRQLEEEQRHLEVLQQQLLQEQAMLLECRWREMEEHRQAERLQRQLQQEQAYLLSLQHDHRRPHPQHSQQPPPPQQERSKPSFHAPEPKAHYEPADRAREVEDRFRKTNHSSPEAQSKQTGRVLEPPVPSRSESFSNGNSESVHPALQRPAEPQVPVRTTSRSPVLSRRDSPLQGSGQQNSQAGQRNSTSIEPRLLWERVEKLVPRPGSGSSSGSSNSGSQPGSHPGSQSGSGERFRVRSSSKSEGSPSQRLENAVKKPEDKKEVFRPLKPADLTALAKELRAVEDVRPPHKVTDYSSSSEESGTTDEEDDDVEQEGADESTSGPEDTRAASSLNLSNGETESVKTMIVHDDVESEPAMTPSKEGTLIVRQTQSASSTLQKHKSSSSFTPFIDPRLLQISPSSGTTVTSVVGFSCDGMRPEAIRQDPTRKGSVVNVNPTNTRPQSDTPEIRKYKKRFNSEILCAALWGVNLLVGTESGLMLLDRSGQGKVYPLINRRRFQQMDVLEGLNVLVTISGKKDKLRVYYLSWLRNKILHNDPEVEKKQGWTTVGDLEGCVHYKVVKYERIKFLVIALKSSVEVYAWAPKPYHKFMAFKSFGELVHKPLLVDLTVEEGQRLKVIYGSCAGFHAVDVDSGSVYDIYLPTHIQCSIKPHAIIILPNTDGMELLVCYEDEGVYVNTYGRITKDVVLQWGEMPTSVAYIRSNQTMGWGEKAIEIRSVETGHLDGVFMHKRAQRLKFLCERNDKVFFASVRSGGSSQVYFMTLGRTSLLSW

[7] = target: Cyclin-dependent kinase 9 (Homo sapiens, UniProt P50750); test: Selectivity interaction (KinomeScan (DiscoverX)) EUB0000607a CDK9; conditions: at 10 µM
Cyclin-dependent kinase 9, sequence (P50750 whole entry): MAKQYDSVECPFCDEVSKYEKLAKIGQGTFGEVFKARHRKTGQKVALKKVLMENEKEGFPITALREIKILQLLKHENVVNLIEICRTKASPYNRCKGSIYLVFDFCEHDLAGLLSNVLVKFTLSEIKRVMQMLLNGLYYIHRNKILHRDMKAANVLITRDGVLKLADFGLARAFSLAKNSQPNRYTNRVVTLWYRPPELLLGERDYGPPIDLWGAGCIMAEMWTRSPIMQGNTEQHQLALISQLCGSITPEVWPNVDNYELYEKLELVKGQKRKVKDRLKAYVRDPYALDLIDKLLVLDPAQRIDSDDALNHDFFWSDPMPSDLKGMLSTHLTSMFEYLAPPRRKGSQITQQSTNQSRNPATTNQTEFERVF

[8] = target: T3, Serine/threonine-protein kinase LATS2 (Homo sapiens) (UniProt Q9NRM7); test: Selectivity interaction (Kinase panel (KiNativ target engagement assay in Jurkat cells)) EUB0001635a LATS2; format: cell-based; conditions: Selectivity number of off-targets 0.0, Selectivity number of targets 233.0, Source Knowledge https://www.sciencedirect.com/science/article/pii/S2451945619300674?via%3Dihub, at 1 µM
T3 sequence (whole entry): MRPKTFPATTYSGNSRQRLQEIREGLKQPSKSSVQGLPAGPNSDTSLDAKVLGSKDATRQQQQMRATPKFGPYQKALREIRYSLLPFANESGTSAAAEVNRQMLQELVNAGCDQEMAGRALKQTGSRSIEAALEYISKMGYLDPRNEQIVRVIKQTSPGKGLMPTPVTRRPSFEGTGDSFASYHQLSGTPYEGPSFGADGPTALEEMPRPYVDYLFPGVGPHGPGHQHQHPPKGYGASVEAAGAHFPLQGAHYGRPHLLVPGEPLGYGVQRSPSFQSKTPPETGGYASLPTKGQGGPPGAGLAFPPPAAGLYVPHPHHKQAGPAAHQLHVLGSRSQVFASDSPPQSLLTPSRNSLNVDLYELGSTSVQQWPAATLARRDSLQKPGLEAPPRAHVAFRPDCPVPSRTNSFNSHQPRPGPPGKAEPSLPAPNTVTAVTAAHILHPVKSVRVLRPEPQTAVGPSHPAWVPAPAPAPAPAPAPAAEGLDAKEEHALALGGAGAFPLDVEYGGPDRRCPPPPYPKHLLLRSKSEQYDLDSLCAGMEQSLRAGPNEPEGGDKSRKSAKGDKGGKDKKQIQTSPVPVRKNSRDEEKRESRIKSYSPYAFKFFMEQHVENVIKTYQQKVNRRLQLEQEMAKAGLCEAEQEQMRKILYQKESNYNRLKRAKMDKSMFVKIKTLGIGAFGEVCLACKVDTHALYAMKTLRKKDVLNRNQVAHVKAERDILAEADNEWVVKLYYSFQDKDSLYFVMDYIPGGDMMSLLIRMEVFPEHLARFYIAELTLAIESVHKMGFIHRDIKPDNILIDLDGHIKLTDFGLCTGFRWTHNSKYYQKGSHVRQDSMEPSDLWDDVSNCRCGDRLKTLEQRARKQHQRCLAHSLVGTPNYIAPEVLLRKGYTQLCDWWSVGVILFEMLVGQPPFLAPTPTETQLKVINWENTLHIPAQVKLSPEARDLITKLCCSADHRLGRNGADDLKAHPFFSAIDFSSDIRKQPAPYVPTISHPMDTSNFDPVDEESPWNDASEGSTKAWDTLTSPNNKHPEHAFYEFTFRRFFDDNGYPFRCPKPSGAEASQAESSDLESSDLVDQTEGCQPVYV

Ribosomal protein S6 kinase beta-1, sequence (P23443 whole entry): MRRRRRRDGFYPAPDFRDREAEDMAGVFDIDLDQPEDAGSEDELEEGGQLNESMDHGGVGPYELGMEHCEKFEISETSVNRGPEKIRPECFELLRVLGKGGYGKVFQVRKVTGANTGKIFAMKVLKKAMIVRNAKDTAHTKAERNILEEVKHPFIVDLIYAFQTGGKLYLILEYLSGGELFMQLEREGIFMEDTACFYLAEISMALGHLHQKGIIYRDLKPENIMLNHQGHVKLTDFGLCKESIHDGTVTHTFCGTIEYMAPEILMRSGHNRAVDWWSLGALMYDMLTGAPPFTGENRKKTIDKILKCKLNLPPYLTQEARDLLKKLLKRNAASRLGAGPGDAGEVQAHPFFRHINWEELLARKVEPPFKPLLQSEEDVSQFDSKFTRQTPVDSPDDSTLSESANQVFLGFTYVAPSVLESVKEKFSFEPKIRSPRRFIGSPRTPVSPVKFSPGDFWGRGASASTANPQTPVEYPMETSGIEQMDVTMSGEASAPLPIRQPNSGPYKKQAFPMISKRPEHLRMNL

IC50 [1]: > 10 µM
SMILES: CCc1cc(Nc2nccc(-c3c(-c4ccc(OC)c(C(=O)Nc5c(F)cccc5F)c4)nc4ccccn34)n2)c(OC)cc1N1CCC(N2CCN(S(C)(=O)=O)CC2)CC1

SMILES: CN(C)C/C=C/C(=O)Nc1ccc(C(=O)N2CCCC(Nc3ncc(Cl)c(-c4c[nH]c5ccccc45)n3)C2)cc1 (stereo not drawn)
% of control [2]: 94%

% of inhibition [3]: 87.4%
SMILES: CC[C@@H]1[C@H](F)C(=O)N[C@@H]1COc1nccc2cc(C(N)=O)c(OC)cc12 [ZIMLOVISERTIB]

% of inhibition [4]: 2%
SMILES: CN1Cc2nccc(-c3cn(C)nc3-c3ccc(F)cc3)c2C1=O

SMILES: Cc1cc(F)c(C(=O)Nc2cccc(-c3nncn3C(C)C)n2)cc1-n1cnc(C2CC2)c1
% of control [5]: 99%

SMILES: CCC(=O)N1CCN(c2ccc(-n3c(=O)ccc4cnc5ccc(-c6cnc7ccccc7c6)cc5c43)cc2C(F)(F)F)CC1
% of control [6]: 5.2%

SMILES: CNC(=O)Nc1ccc(-c2nc(N3CC4CCC(C3)O4)c3cnn(C4CCC5(CC4)OCCO5)c3n2)cc1
% of control [7]: 100%

SMILES: C=CC(=O)Nc1ccc(C(=O)Nc2[nH]nc3c2CN(C(=O)N[C@H](CN(C)C)c2ccccc2)C3(C)C)cc1
% of engagement [8]: -12.8%
